Experimental data taken from ChEMBL document CHEMBL1201862, “PubChem BioAssay data set” (2004).
The source made the active and inactive calls.

How the values were obtained:
SUMO-activating enzyme [1] = biological target: T1, SUMO-activating enzyme (Homo sapiens, UniProt Q9UBT2); test: blockers of UBC9-mediated SUMO conjugation – biochemical, AlphaScreen, SUMOylation inhibitor project, confirmation (AID 2018); format: functional
Coagulation factor XII = biological target: T2, Coagulation factor XII (Homo sapiens, UniProt P00748); format: functional;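 note: activated factor XIIa alpha cleaving a fluorogenic AMC peptide substrate; inhibitor potency from loss of enzyme activity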
T2 sequence (P00748 whole entry): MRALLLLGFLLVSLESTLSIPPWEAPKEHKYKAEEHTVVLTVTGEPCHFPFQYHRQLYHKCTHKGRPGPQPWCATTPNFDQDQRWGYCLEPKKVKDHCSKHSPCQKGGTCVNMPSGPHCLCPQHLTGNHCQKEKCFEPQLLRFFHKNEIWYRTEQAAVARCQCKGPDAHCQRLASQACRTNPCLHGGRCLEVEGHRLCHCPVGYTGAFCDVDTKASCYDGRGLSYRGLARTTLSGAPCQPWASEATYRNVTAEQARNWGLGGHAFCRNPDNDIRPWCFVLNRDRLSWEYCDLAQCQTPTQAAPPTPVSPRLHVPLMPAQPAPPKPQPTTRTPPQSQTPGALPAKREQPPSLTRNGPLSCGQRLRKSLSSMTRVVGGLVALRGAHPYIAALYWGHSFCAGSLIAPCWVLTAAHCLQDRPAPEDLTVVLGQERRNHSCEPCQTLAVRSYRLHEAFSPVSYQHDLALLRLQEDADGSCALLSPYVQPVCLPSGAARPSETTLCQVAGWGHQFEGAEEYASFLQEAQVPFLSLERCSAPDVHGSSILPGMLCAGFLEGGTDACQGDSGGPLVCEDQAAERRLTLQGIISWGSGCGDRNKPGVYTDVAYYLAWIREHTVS

[2] = biological target: T3, Carboxy-terminal domain RNA polymerase II polypeptide A small phosphatase 1 (Homo sapiens, UniProt Q9GZU7); test: CTDSP1 inhibitors, concentration-response, biochemical, absorbance readout, ultra-high-throughput screen actives (AID 540297); format: functional
T3 sequence (Q9GZU7 whole entry): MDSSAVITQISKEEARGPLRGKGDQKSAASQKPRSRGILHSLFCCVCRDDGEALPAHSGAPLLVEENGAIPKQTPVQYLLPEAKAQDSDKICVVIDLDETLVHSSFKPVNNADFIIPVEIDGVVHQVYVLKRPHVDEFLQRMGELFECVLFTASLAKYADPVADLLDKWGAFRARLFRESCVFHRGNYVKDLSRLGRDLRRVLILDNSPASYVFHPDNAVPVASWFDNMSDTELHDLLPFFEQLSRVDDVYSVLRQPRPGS

SUMO-activating enzyme [3] = biological target: T1, SUMO-activating enzyme; test: blockers of SAE1/SAE2–UBC9 SUMO transfer – biochemical, HTRF, uHTS, primary screen (AID 2006); format: protein-complex assay
[4] = biological target: T4, Orexin/Hypocretin receptor type 1 (Homo sapiens, UniProt O43613); test: Homogeneous Time Resolved Fluorescence (HTRF)-based cell-based high throughput dose response assay for antagonists of the orexin 1 receptor (OX1R; HCRTR1). [Related pubchem assays (depositor defined):AID434989, AID435008, AID463079, AID485270, AID492963, AID492964, AID492965, AID493232, AID504717, AID504718]; format: functional
[5] = (§1) Counterscreen for antagonists of the orexin 1 receptor (OX1R; HCRTR1): Fluorescence-based cell-based high throughput dose response assay to identify antagonists of the parental CHO cell line. [Related pubchem assays (depositor defined):AID434989, AID435008, AID463079, AID485270, AID492963, AID492964, AID492965, AID493232, AID504699, AID504701]; format: functional
[6] = biological target: T4, Orexin/Hypocretin receptor type 1; test: Fluorescence-based cell-based high throughput dose response assay for antagonists of the orexin 1 receptor (OX1R; HCRTR1). [Related pubchem assays (depositor defined):AID434989, AID435008, AID463079, AID485270, AID492963, AID492964, AID492965, AID493232, AID504717, AID504718]; format: functional
CHO-K1 = test: as §1, with “Homogeneous time resolved fluorescence (HTRF)-based” for “Fluorescence-based”, “cell-based” for “cell-based high throughput”, “CHO-K1” for “CHO”; format: functional; settings: Cricetulus griseus;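 note: potency for inhibition of ATP-stimulated IP1 production as antagonists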
[7] = biological target: Signal transducer and activator of transcription 1-alpha/beta (Homo sapiens, UniProt P42224); test: STAT3 blockade with qPCR and toxicity readouts – cell-based, STAT1 panel, cytotoxicity, late-stage follow-up, panel member STAT1 Inhibition (AID 2078)
[8] = biological target: Signal transducer and activator of transcription 3 (Homo sapiens, UniProt P40763); test: STAT3 blockade with qPCR and toxicity readouts – cell-based, STAT1 panel, cytotoxicity, late-stage follow-up, panel member STAT3 Inhibition (AID 2078)
Sequence of Signal transducer and activator of transcription 3 (P40763 whole entry): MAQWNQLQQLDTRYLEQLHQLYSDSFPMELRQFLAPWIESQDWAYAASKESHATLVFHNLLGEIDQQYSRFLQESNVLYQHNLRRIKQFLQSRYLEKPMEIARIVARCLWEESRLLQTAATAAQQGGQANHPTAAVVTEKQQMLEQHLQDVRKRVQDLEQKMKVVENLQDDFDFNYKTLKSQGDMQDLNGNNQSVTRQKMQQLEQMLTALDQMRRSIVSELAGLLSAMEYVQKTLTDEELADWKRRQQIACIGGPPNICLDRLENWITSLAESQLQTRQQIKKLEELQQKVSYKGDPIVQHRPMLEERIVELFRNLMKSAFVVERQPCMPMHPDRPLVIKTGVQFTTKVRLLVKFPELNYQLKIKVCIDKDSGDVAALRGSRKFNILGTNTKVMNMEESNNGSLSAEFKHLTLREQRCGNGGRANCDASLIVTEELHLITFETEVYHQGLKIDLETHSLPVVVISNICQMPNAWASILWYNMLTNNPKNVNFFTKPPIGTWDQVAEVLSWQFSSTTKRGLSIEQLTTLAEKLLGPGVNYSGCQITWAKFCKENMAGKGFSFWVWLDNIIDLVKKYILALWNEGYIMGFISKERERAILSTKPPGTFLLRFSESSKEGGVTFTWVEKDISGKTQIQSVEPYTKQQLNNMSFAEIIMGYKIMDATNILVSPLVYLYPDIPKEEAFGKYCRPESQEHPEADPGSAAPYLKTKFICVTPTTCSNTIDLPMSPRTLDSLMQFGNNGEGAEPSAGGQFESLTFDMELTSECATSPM

T1 sequence (Q9UBE0 whole entry): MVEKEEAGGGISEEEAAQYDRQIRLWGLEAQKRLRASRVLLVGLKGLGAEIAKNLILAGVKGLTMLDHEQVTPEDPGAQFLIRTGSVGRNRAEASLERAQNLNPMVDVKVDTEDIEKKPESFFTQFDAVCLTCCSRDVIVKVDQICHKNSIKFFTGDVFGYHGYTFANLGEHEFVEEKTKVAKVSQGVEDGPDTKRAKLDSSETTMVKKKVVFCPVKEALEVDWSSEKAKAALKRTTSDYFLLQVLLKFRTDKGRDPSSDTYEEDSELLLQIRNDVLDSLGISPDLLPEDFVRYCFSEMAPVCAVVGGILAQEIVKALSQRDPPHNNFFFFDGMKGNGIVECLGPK
T1 sequence (Q9UBT2 whole entry): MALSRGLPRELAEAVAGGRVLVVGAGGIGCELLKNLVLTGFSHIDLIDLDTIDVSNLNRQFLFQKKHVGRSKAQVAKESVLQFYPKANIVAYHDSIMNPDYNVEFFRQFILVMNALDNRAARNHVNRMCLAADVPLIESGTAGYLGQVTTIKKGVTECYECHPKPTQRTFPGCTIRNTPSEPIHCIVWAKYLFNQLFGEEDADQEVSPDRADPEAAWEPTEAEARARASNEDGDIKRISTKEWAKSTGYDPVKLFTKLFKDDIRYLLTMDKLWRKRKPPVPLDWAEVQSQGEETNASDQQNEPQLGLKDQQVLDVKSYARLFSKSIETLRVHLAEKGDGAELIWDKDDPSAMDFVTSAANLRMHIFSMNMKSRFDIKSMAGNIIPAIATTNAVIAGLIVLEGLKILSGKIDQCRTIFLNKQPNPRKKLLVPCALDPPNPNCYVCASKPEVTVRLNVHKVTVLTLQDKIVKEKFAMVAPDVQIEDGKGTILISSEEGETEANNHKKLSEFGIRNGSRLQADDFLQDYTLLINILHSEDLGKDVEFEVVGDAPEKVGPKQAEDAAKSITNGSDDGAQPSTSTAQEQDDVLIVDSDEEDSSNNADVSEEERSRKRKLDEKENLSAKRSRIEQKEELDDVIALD
T4 sequence (O43613 whole entry): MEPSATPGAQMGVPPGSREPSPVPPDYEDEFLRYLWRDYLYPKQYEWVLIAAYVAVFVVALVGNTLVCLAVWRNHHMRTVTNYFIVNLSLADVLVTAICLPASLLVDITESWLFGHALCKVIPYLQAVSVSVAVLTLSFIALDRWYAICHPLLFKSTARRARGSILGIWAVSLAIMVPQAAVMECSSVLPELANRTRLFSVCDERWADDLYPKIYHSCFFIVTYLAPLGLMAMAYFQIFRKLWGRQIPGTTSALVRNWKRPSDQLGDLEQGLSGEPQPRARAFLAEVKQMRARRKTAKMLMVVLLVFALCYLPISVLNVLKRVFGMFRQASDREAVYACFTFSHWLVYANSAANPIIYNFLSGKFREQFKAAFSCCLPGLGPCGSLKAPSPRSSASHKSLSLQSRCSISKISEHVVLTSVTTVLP
Sequence of Signal transducer and activator of transcription 1-alpha/beta (P42224 whole entry): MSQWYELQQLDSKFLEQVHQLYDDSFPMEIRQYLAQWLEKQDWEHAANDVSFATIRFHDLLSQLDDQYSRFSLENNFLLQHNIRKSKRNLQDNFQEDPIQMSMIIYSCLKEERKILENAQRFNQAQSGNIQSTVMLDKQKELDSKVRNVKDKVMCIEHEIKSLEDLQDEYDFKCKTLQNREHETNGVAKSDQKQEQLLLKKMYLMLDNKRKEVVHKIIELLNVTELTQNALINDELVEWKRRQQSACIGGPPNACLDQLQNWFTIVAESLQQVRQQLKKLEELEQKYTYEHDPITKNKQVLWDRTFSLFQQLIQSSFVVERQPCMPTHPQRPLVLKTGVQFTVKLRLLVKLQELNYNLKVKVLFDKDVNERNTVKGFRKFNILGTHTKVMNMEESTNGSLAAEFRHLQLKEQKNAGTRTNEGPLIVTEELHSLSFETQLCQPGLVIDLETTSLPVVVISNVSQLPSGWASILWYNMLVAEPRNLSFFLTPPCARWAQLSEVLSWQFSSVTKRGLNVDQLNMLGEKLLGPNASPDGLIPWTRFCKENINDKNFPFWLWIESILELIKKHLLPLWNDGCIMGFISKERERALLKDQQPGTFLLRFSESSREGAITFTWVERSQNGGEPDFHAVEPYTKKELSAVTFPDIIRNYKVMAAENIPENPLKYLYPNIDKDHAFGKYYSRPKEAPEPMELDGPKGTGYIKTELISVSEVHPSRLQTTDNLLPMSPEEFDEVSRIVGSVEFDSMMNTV

For `COc1ccc(C2=NN(C(=O)CCCC(=O)O)C(c3cn(-c4ccccc4)nc3-c3ccccc3)C2)cc1` (stereo not given), which IC50 (SUMO-activating enzyme [1]) is on record?
The IC50 was 19.8 µM (active).

What about the IC50 (Coagulation factor XII) of the same compound?
The IC50 was > 50 µM (inactive).

And the IC50 [2]?
Its IC50 is 3.91 µM (active).

What about the IC50 (SUMO-activating enzyme [3]) of the same compound?
Its IC50 is 17.5 µM (active).

Which results are given for `Cn1cc(/C=C(\C#N)C(=O)Nc2ccccc2O)c2ccccc21`?
IC50 [4]: 4.48 µM (active); IC50 [5]: 25 µM (inactive); IC50 [6]: 5.57 µM (active); IC50 (CHO-K1): > 66.2 µM (inactive)

What does the source list for `c1ccc(CC2CCN(c3nc(CN4CCOCC4)nc4sc5c(c34)CCCC5)CC2)cc1`?
IC50 [7]: > 55.7 µM (inactive); IC50 [8]: > 55.7 µM (inactive)
